From US7704995B2 (Exelixis, Inc., priority 2003, dated 2010) come the findings set out here.

What is called IC50 is the point on the concentration scale where inhibition reaches its midpoint.

A value given as a limit tells only on which side of the number the result lay.

The target of this assay is T1, Chk1 (Homo sapiens, UniProt O14757).
T1 construct: purchased Upstate Biotechnology
T1 sequence (O14757 1-476): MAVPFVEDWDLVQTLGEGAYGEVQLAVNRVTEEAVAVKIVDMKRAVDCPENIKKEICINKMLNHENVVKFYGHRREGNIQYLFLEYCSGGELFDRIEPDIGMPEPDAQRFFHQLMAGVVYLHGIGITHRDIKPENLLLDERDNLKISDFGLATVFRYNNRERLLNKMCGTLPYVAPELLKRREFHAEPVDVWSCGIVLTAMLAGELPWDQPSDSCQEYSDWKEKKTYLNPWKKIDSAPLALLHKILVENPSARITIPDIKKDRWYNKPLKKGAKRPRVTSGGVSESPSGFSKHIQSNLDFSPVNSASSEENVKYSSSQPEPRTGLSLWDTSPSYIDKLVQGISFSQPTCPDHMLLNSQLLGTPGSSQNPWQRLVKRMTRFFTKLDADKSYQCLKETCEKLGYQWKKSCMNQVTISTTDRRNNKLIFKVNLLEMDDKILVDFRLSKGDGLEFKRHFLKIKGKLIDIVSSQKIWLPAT
The assay can be described thus: Chk1 kinase assay: incorporation of γ-33P ATP into immobilized myelin basic protein. As to conditions: Table 11, Chk1 only; class symbols A-D; read-out: Chk1 IC50. It is filed as biochemical. The method, boiled down:
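Enzyme activity is measured as γ-33P transfer from ATP onto immobilized MBP over 1 h at room temperature, with Chk1 at 10 nM/10 μM unlabeled ATP and Chk2 at 20 nM/30 μM unlabeled ATP. Compounds are tested in 1% DMSO.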
For `COC(=O)c1ccc(CNC(=O)c2cccc(-c3cnc(N)c(C(=O)N[C@H]4CCCNC4)n3)c2)cc1` [Example 869, methyl 4-[({[3-(5-amino-6-{[(3S)-piperidin-3-ylamino]carbonyl}pyrazin-2-yl)phenyl]carbonyl}amino)methyl]benzoate], the IC50 was less than 50 nM.

Regarding `Nc1ncc(-c2cccc(C(=O)NCc3ccc(Br)cc3)c2)nc1C(=O)N[C@H]1CCCNC1` [Example 870, 3-amino-6-[3-({[(4-bromophenyl)methyl]amino}carbonyl)phenyl]-N-[(3S)-piperidin-3-yl]pyrazine-2-carboxamide], the IC50 was less than 50 nM.

Take `Nc1ncc(-c2cccc(C(=O)NCc3ccc(Br)cc3F)c2)nc1C(=O)N[C@H]1CCCNC1` [Example 871, 3-amino-6-[3-({[(4-bromo-2-fluorophenyl)methyl]amino}carbonyl)phenyl]-N-[(3S)-piperidin-3-yl]pyrazine-2-carboxamide]: the IC50 was less than 50 nM.

Take `Nc1ncc(-c2cccc(C(=O)NCc3ccccc3Br)c2)nc1C(=O)N[C@H]1CCCNC1` [Example 872, 3-amino-6-[3-({[(2-bromophenyl)methyl]amino}carbonyl)phenyl]-N-[(3S)-piperidin-3-yl]pyrazine-2-carboxamide]: the IC50 was less than 50 nM.

In the case of `Nc1ncc(-c2cccc(C(=O)NCc3ccc(F)cc3C(F)(F)F)c2)nc1C(=O)N[C@H]1CCCNC1` [Example 873, 3-amino-6-{3-[({[4-fluoro-2-(trifluoromethyl)phenyl]methyl}amino)carbonyl]phenyl}-N-[(3S)-piperidin-3-yl]pyrazine-2-carboxamide], the IC50 is less than 50 nM.

As for `Nc1ncc(-c2cccc(C(=O)NCc3cccc(C(F)(F)F)c3F)c2)nc1C(=O)N[C@H]1CCCNC1` [Example 874, 3-amino-6-{3-[({[2-fluoro-3-(trifluoromethyl)phenyl]methyl}amino)carbonyl]phenyl}-N-[(3S)-piperidin-3-yl]pyrazine-2-carboxamide], the IC50 was less than 50 nM.

For `Nc1ncc(-c2cccc(C(=O)NC[C@@H]3CCNC3)c2)nc1C(=O)N[C@H]1CCCNC1` [Example 875, 3-amino-N-[(3S)-piperidin-3-yl]-6-[3-({[(3R)-pyrrolidin-3-ylmethyl]amino}carbonyl)phenyl]pyrazine-2-carboxamide], the concentration for half-maximal inhibition (IC50) was less than 50 nM.

As for `Nc1ncc(-c2cccc(C(=O)N[C@@H]3CCNC3)c2)nc1C(=O)N[C@H]1CCCNC1` [Example 876, 3-amino-N-[(3S)-piperidin-3-yl]-6-(3-{[(3R)-pyrrolidin-3-ylamino]carbonyl}phenyl)pyrazine-2-carboxamide], the half-inhibitory concentration (IC50) was less than 50 nM.

As to `Nc1ncc(-c2cccc(C(=O)NCCN3CCCCC3)c2)nc1C(=O)N[C@H]1CCCNC1` [Example 877, 3-amino-N-[(3S)-piperidin-3-yl]-6-(3-{[(2-piperidin-1-ylethyl)amino]carbonyl}phenyl)pyrazine-2-carboxamide], the half-maximal inhibitory concentration (IC50) was less than 50 nM.

Take `Nc1ncc(-c2cccc(C(=O)NCCc3ccccc3)c2)nc1C(=O)N[C@H]1CCCNC1` [Example 878, 3-amino-6-(3-{[(2-phenylethyl)amino]carbonyl}phenyl)-N-[(3S)-piperidin-3-yl]pyrazine-2-carboxamide]: the IC50 is less than 50 nM.

On to `COCCNC(=O)c1cccc(-c2cnc(N)c(C(=O)N[C@H]3CCCNC3)n2)c1` [Example 879, 3-amino-6-[3-({[2-(methyloxy)ethyl]amino}carbonyl)phenyl]-N-[(3S)-piperidin-3-yl]pyrazine-2-carboxamide], for which the half-inhibitory concentration (IC50) was in the range of 50 to 1000 nM.

Regarding `Nc1ncc(-c2cccc(C(=O)NCc3ccc(I)cc3)c2)nc1C(=O)N[C@H]1CCCNC1` [Example 880, 3-amino-6-[3-({[(4-iodophenyl)methyl]amino}carbonyl)phenyl]-N-[(3S)-piperidin-3-yl]pyrazine-2-carboxamide], the half-inhibitory concentration (IC50) was less than 50 nM.

For `Nc1ncc(-c2cccc(C(=O)NCc3ccccc3Cl)c2)nc1C(=O)N[C@H]1CCCNC1` [Example 881, 3-amino-6-[3-({[(2-chlorophenyl)methyl]amino}carbonyl)phenyl]-N-[(3S)-piperidin-3-yl]pyrazine-2-carboxamide], the IC50 is less than 50 nM.

For the compound `Nc1ncc(-c2cccc(CNC(=O)c3ccc(F)cc3)c2)nc1C(=O)N[C@H]1CCCNC1` [Example 882, 3-amino-6-[3-({[(4-fluorophenyl)carbonyl]amino}methyl)phenyl]-N-[(3S)-piperidin-3-yl]pyrazine-2-carboxamide], the IC50 was less than 50 nM.

Take `Nc1ncc(-c2cccc(CNC(=O)c3ccc(OC(F)(F)F)cc3)c2)nc1C(=O)N[C@H]1CCCNC1` [Example 883, 3-amino-N-[(3S)-piperidin-3-yl]-6-(3-{[({4-[(trifluoromethyl)oxy]phenyl}carbonyl)amino]methyl}phenyl)pyrazine-2-carboxamide]: the IC50 was less than 50 nM.

On to `Nc1ncc(-c2cccc(CNC(=O)c3ccc(Cl)cc3)c2)nc1C(=O)N[C@H]1CCCNC1` [Example 884, 3-amino-6-[3-({[(4-chlorophenyl)carbonyl]amino}methyl)phenyl]-N-[(3S)-piperidin-3-yl]pyrazine-2-carboxamide], for which the 50% inhibitory concentration (IC50) is less than 50 nM.

In the case of `Nc1ncc(-c2cccc(NC(=O)Cc3ccc(Cl)cc3)c2)nc1C(=O)N[C@H]1CCCNC1` [Example 885, 3-amino-6-(3-{[(4-chlorophenyl)acetyl]amino}phenyl)-N-[(3S)-piperidin-3-yl]pyrazine-2-carboxamide], the IC50 is less than 50 nM.

`Nc1ncc(-c2cccc(NC(=O)Cc3c(Cl)cccc3Cl)c2)nc1C(=O)N[C@H]1CCCNC1` [Example 886, 3-amino-6-(3-{[(2,6-dichlorophenyl)acetyl]amino}phenyl)-N-[(3S)-piperidin-3-yl]pyrazine-2-carboxamide]: the IC50 is less than 50 nM.

For the compound `Nc1ncc(-c2cccc(NC(=O)Cc3c(F)c(F)c(F)c(F)c3F)c2)nc1C(=O)N[C@H]1CCCNC1` [Example 887, 3-amino-6-(3-{[(pentafluorophenyl)acetyl]amino}phenyl)-N-[(3S)-piperidin-3-yl]pyrazine-2-carboxamide], the IC50 was less than 50 nM.

Turning to `Nc1ncc(-c2cccc(NC(=O)Cc3ccc(F)cc3Cl)c2)nc1C(=O)N[C@H]1CCCNC1` [Example 888, 3-amino-6-(3-{[(2-chloro-4-fluorophenyl)acetyl]amino}phenyl)-N-[(3S)-piperidin-3-yl]pyrazine-2-carboxamide], the IC50 is less than 50 nM.

On to `CSc1ccc(CC(=O)Nc2cccc(-c3cnc(N)c(C(=O)N[C@H]4CCCNC4)n3)c2)cc1` [Example 889, 3-amino-6-[3-({[4-(methylthio)phenyl]acetyl}amino)phenyl]-N-[(3S)-piperidin-3-yl]pyrazine-2-carboxamide], for which the IC50 was less than 50 nM.

`Nc1ncc(-c2cccc(NC(=O)Cc3ccc(Cl)cc3Cl)c2)nc1C(=O)N[C@H]1CCCNC1` [Example 890, 3-amino-6-(3-{[(2,4-dichlorophenyl)acetyl]amino}phenyl)-N-[(3S)-piperidin-3-yl]pyrazine-2-carboxamide]: the IC50 is less than 50 nM.

For `Nc1ncc(-c2cccc(NC(=O)c3cc(-c4ccc(Cl)cc4)cs3)c2)nc1C(=O)N[C@H]1CCCNC1` [Example 891, 3-amino-6-[3-({[4-(4-chlorophenyl)-2-thienyl]carbonyl}amino)phenyl]-N-[(3S)-piperidin-3-yl]pyrazine-2-carboxamide], the half-maximal inhibitory concentration (IC50) is less than 50 nM.

Regarding `Nc1ncc(-c2cccc(CNC(=O)c3ccc(Br)cc3)c2)nc1C(=O)N[C@H]1CCCNC1` [Example 892, 3-amino-6-[3-({[(4-bromophenyl)carbonyl]amino}methyl)phenyl]-N-[(3S)-piperidin-3-yl]pyrazine-2-carboxamide], the IC50 was less than 50 nM.

With `Nc1ncc(-c2cccc(CNC(=O)c3ccc4ccccc4c3)c2)nc1C(=O)N[C@H]1CCCNC1` [Example 893, 3-amino-6-(3-{[(naphthalen-2-ylcarbonyl)amino]methyl}phenyl)-N-[(3S)-piperidin-3-yl]pyrazine-2-carboxamide], the IC50 was less than 50 nM.

Regarding `Nc1ncc(-c2cccc(OCCN3CCN(c4ccccc4)CC3)c2)nc1C(=O)N[C@H]1CCCNC1` [Example 894, 3-amino-6-(3-{[2-(4-phenylpiperazin-1-yl)ethyl]oxy}phenyl)-N-[(3S)-piperidin-3-yl]pyrazine-2-carboxamide], the IC50 was less than 50 nM.

Consider `Nc1ncc(-c2cccc(CNC(=O)Nc3ccc(Br)cc3)c2)nc1C(=O)N[C@H]1CCCNC1` [Example 895], for which the IC50 is less than 50 nM.

Take `Nc1ncc(-c2cccc(CNC(=O)Nc3ccc4ccccc4c3)c2)nc1C(=O)N[C@H]1CCCNC1` [Example 896]: the IC50 is less than 50 nM.

Regarding `Nc1ncc(-c2cccc(NC(=O)Cc3ccc(F)cc3F)c2)nc1C(=O)N[C@H]1CCCNC1` [Example 897, 3-amino-6-(3-{[(2,4-difluorophenyl)acetyl]amino}phenyl)-N-[(3S)-piperidin-3-yl]pyrazine-2-carboxamide], the concentration for half-maximal inhibition (IC50) was less than 50 nM.

Consider `Nc1ncc(-c2cccc(NC(=O)Cc3ccccc3F)c2)nc1C(=O)N[C@H]1CCCNC1` [Example 898, 3-amino-6-(3-{[(2-fluorophenyl)acetyl]amino}phenyl)-N-[(3S)-piperidin-3-yl]pyrazine-2-carboxamide], for which the IC50 is less than 50 nM.
